Measured values reported in the NIST ThermoML archive (doi:10.1021/je1002626).

Columns and labels:
[1] = wn = mass fraction of the nth substance listed; settings: for surface tension liquid-gas: Ring tensiometer; for mass density: 101.3 kPa, Liquid, Pycnometric method
[2] = 101.33 kPa, Liquid, Pycnometric method

CNCCO [2-(methylamino)ethanol] + O
[1]
Settings	mass density [kg/m3]	surface tension liquid-gas [mN/m]
298 K, w1 = 0.1	–	60.85
298 K, w1 = 0.2	–	56.11
298 K, w1 = 0.3	–	52.51
298 K, w1 = 0.4	–	49.16
298.15 K, w1 = 0.178	996.31	–
298.15 K, w1 = 1	936.18	–
303 K, w1 = 0.1	–	60.02
303 K, w1 = 0.2	–	55.28
303 K, w1 = 0.3	–	52.33
303 K, w1 = 0.4	–	48.15
303.15 K, w1 = 0.178	994.38	–
303.15 K, w1 = 1	932.26	–
308 K, w1 = 0.1	–	59.5
308 K, w1 = 0.2	–	54.5
308 K, w1 = 0.3	–	51.46
308 K, w1 = 0.4	–	47.2
308.15 K, w1 = 0.178	993.12	–
313 K, w1 = 0.1	–	58.65
313 K, w1 = 0.2	–	53.42
313 K, w1 = 0.3	–	50.18
313 K, w1 = 0.4	–	46.67
313.15 K, w1 = 0.178	990.09	–
313.15 K, w1 = 1	924.42	–
318 K, w1 = 0.1	–	57.66
318 K, w1 = 0.2	–	52.78
318 K, w1 = 0.3	–	49.42
318 K, w1 = 0.4	–	45.72
318.15 K, w1 = 0.178	988.61	–
323 K, w1 = 0.1	–	56.89
323 K, w1 = 0.2	–	51.79
323 K, w1 = 0.3	–	48.9
323 K, w1 = 0.4	–	44.92
323.15 K, w1 = 0.178	984.89	–
323.15 K, w1 = 1	916.48	–

CNCCO [2-(methylamino)ethanol]
[2]
Settings	mass density [kg/m3]
298.15 K	936.18
303.15 K	932.26
313.15 K	924.42
323.15 K	916.48
